Patent US20060069132A1, “Azolecarboxamide herbicides” (priority 2004, published 2006)

Columns and labels:
Assay in all cases: Test F pre-/postemergence herbicide test
Conditions in all cases: 125 g ai/ha
wild oat = assay type: in vivo, Avena fatua
Description: (§1) Seeds of plant species selected from annual blugrass (Poa annua L.), blackgrass (Alopecurus myosuroides Huds.), catchweed bedstraw (Gallium aparine L.), common chickweed (Stellaria media (L.) Vill./Cyr.), downy bromegrass (Bromus tectorum L.), green foxtail (Setaria viridis (L.) Beauv.), Italian ryegrass (Lolium multiflorum Lam.), kochia (Kochia scoparia (L.). Schrad.), lambsquarters (Chenopodium album L.), littleseed canarygrass (Phalaris minor Retz.), pigweed (Amaranthus retroflexus L.), Russian thistle (Salsola kali L. ssp. Ruthenica (Iljin) Soo), wild buckwheat (Polygonum convolvulus L.), wild mustard (Sinapis arvensis L.), wild oat (Avena fatua L.), windgrass (Apera spica-venti (L.) Beauv.), winter barley (Hordeum vulgare L.), and wheat (Triticum aestivum L.) were planted and treated preemergence with test chemicals formulated in a non-phytotoxic solvent mixture which included a surfactant.
(§2) At the same time, plants selected from these crop and weed species were treated with postemergence applications of some of the test chemicals formulated in the same manner. Plants ranged in height from 2 to 18 cm (1- to 4-leaf stage) for postemergence treatments. Treated plants and controls were maintained in a greenhouse for 12 to 14 days, after which time all species were compared to controls and visually evaluated. Plant response ratings, summarized in Table F, are based on a scale of 0 to 100 where 0 is no effect and 100 is complete control. A dash (-) response means no test result.

common chickweed = assay type: in vivo, Stellaria media
Description: as §1, §2

wheat = assay type: in vivo, Triticum aestivum
Description: as §1, §2

wild mustard = assay type: in vivo, Sinapis arvensis
Description: as §1, §2

Italian ryegrass = assay type: in vivo, Lolium multiflorum
Description: as §1, §2

lambsquarters = assay type: in vivo, Chenopodium album
Description: as §1, §2

annual blugrass = assay type: in vivo, Poa annua
Description: as §1, §2

green foxtail = assay type: in vivo, Setaria viridis
Description: as §1, §2

Compound: CCc1nn(C(C)(C)C)cc1C(=O)Nc1cc(C(=O)N(CC)CC)ccc1F [Compound 223]
- Plant response rating (0-100), Oat, Wild (wild oat; Postemergence): 35
- Plant response rating (0-100), Oat, Wild (wild oat; Preemergence): 70
- Plant response rating (0-100), Chickweed (common chickweed; Postemergence): 60
- Plant response rating (0-100), Chickweed (common chickweed; Preemergence): 100
- Plant response rating (0-100), Wheat (wheat; Postemergence): 0
- Plant response rating (0-100), Wheat (wheat; Preemergence): 0
- Plant response rating (0-100), Mustard, Wild (wild mustard; Postemergence): 65
- Plant response rating (0-100), Mustard, Wild (wild mustard; Preemergence): 100
- Plant response rating (0-100), Ryegrass, Italian (Italian ryegrass; Postemergence): 45
- Plant response rating (0-100), Ryegrass, Italian (Italian ryegrass; Preemergence): 65
- Plant response rating (0-100), Lambsquarters (lambsquarters; Postemergence): 65
- Plant response rating (0-100), Lambsquarters (lambsquarters; Preemergence): 95
- Plant response rating (0-100), Bluegrass (annual blugrass; Postemergence): 50
- Plant response rating (0-100), Bluegrass (annual blugrass; Preemergence): 100
- Plant response rating (0-100), Foxtail, Green (green foxtail; Postemergence): 60
- Plant response rating (0-100), Foxtail, Green (green foxtail; Preemergence): 55
